The source of these data is patent US9498483B2, “2,3,5-trisubstituted thiophene compounds and uses thereof” (priority 2010, dated 2016).

The subject of assay [1] is HCV replicon I389luc-ubi-neo/NS3-3′/ET in ET (Huh-lucubineo-ET) cells. The experiment in a line: Replicon assay (Biological Example 2), luciferase readout. It is filed as cell-based. The note with it: Hepatitis C virus. The method, boiled down:
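EC50 values come from Hill fits of % inhibition of replicon-driven firefly luciferase, relative to no-compound wells. Compounds were serially diluted (10 points, 3-fold, 0.1 nM–50 μM final, 0.5% DMSO) onto ET replicon cells and read after 48 h.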
On the technique in general: In antiviral work, replicon cells carry a viral genome segment that copies itself.

Assay [2] has as its target T1, HCV polymerase (Hepatitis C virus genotype 1b, UniProt Q9WMX2).
T1 construct: (His)6 (C); made in house; host or cells: XL-1 cells (E. coli, by own knowledge)
Briefly: Polymerase assay of Biological Example 1 (IC50 values of Table 3). It is filed as biochemical. The note with it: IC50 values of Table 3, polymerase assay of Biological Example 1; read-out: NS5B-enzyme3.

Setting [3] is: ET cells, luciferase activity 48 hours after compound.

`COc1ccc(-c2cc(N3C(=O)CCCC3C3CCCCC3)c(C(=O)O)s2)cc1` (stereo not drawn) [Compound 114, 3-(2-Cyclohexyl-6-oxo-piperidin-1-yl)-5-(4-methoxy-phenyl)-thiophene-2-carboxylic acid]: the IC50 was 100 to 5000 nM in assay [1] (between 100 nM and 5.0 uM); 90 nM in assay [2].
The corresponding values for `O=C(O)c1sc(-c2ccccc2)cc1N1C(=O)CN(S(=O)(=O)c2ccc(-c3cccnc3)nc2)C[C@H]1C1CCCCC1` [Compound 214, 3-[(R)-4-([2,3′]Bipyridinyl-5-sulfonyl)-2-cyclohexyl-6-oxo-piperazin-1-yl]-5-phenyl-thiophene-2-carboxylic acid] are 100 to 5000 nM and 1 nM.
`O=C(O)c1sc(-c2ccc(Cl)cc2)cc1N1C(=O)CN(S(=O)(=O)c2ccc(N3CC4CCC(C3)O4)nc2)C[C@H]1C1CCCCC1` [Compound 227, 5-(4-Chloro-phenyl)-3-{(R)-2-cyclohexyl-4-[6-(8-oxa-3-aza-bicyclo[3.2.1]oct-3-yl)-pyridine-3-sulfonyl]-6-oxo-piperazin-1-yl}-thiophene-2-carboxylic acid]: the IC50 is no more than 100 nM in assay [1] (setting [3]) and 1 nM in assay [2].
The like results for `CC(C)(C)C#Cc1cc(N2C(=O)CCCC2C2CCCCC2)c(C(=O)O)s1` (stereo not drawn) [Compound 19, 3-(2-Cyclohexyl-6-oxo-piperidin-1-yl)-5-(3,3-dimethyl-but-1-ynyl)-thiophene-2-carboxylic acid] were, in that order, no more than 100 nM and 15 nM.
As for `O=C(O)c1sc(-c2ccccc2)cc1N1C(=O)CN(S(=O)(=O)c2cccc(-c3ccccc3)c2)CC1C1CCCCC1` (stereo not drawn) [Compound 65, 3-[4-(Biphenyl-3-sulfonyl)-2-cyclohexyl-6-oxo-piperazin-1-yl]-5-phenyl-thiophene-2-carboxylic acid], the IC50 in assay [1] (between 100 nM and 5.0 uM) is 100 to 5000 nM; in assay [2], 45 nM.
As for `C[C@@H]1CCCN1c1ncc(S(=O)(=O)N2CC(=O)N(c3cc(-c4ccccc4)sc3C(=O)O)[C@H](C3CCCCC3)C2)cc1Cl` [Compound 170, 3-{(R)-4-[5-Chloro-6-((R)-2-methyl-pyrrolidin-1-yl)-pyridine-3-sulfonyl]-2-cyclohexyl-6-oxo-piperazin-1-yl}-5-phenyl-thiophene-2-carboxylic acid], the IC50 in assay [1] (setting [3]) was no more than 100 nM; in assay [2], 4 nM.
`CC(C)(C)C#Cc1cc(N2C(=O)[C@](C)(CCC(C)(C)O)OC[C@H]2C2CCCCC2)c(C(=O)O)s1` [Compound 318, 3-[(2S,5R)-5-Cyclohexyl-2-(3-hydroxy-3-methyl-butyl)-2-methyl-3-oxo-morpholin-4-yl]-5-(3,3-dimethyl-but-1-ynyl)-thiophene-2-carboxylic acid]: the IC50 in assay [1] (setting [3]) is no more than 100 nM; in assay [2] it was 14 nM.
The like results for `O=C(O)c1sc(-c2ccc(F)cc2)cc1N1C(=O)CN(S(=O)(=O)c2ccc(N3C[C@H]4C[C@@H]3CO4)nc2)C[C@H]1C1CCCCC1` [Compound 273, 3-{(R)-2-Cyclohexyl-4-[(1R,4R)-6-(2-oxa-5-aza-bicyclo[2.2.1]hept-5-yl)-pyridine-3-sulfonyl]-6-oxo-piperazin-1-yl}-5-(4-fluoro-phenyl)-thiophene-2-carboxylic acid] were, in that order, no more than 100 nM and 1 nM.
`CC(C)(C)C#Cc1cc(N2C(=O)CN(S(=O)(=O)c3c[nH]cn3)C[C@H]2C2CCCCC2)c(C(=O)O)s1` [Compound 247, 3-[(R)-2-Cyclohexyl-4-(1H-imidazole-4-sulfonyl)-6-oxo-piperazin-1-yl]-5-(3,3-dimethyl-but-1-ynyl)-thiophene-2-carboxylic acid]: the IC50 in assay [1] (setting [3]) is no more than 100 nM; in assay [2] it was 2 nM.
Consider `O=C(O)c1sc(-c2ccc(Cl)cc2)cc1N1C(=O)CCCC1C1CCCCC1` (stereo not drawn) [Compound 73, 5-(4-Chloro-phenyl)-3-(2-cyclohexyl-6-oxo-piperidin-1-yl)-thiophene-2-carboxylic acid], for which the IC50 in assay [1] (between 100 nM and 5.0 uM) is 100 to 5000 nM; in assay [2], 21 nM.
The like results for `COc1ccc(S(=O)(=O)N2CC(=O)N(c3cc(-c4ccccc4)sc3C(=O)O)C(C3CCCCC3)C2)cc1` (stereo not drawn) [Compound 103, 3-[2-Cyclohexyl-4-(4-methoxy-benzenesulfonyl)-6-oxo-piperazin-1-yl]-5-phenyl-thiophene-2-carboxylic acid] were, in that order, 100 to 5000 nM and 2 nM.
The like results for `O=C(O)c1sc(-c2ccccc2)cc1N1C(=O)CN(S(=O)(=O)CCc2ccccc2)CC1C1CCCCC1` (stereo not drawn) [Compound 39, 3-[2-Cyclohexyl-6-oxo-4-(2-phenyl-ethanesulfonyl)-piperazin-1-yl]-5-phenyl-thiophene-2-carboxylic acid] were, in that order, 100 to 5000 nM and 51 nM.
On to `CC(C)(C)C#Cc1cc(N2C(=O)CN(S(=O)(=O)c3ccc(N4CCOCC4)nc3)CC2C2CCCCC2)c(C(=O)O)s1` (stereo not drawn) [Compound 168, 3-[2-Cyclohexyl-4-(6-morpholin-4-yl-pyridine-3-sulfonyl)-6-oxo-piperazin-1-yl]-5-(3,3-dimethyl-but-1-ynyl)-thiophene-2-carboxylic acid], for which the IC50 in assay [1] (setting [3]) was no more than 100 nM; in assay [2], 3820 nM.
Turning to `O=C(O)c1sc(-c2ccccc2F)cc1N1C(=O)CCCC1C1CCCCC1` (stereo not drawn) [Compound 67, 3-(2-Cyclohexyl-6-oxo-piperidin-1-yl)-5-(2-fluoro-phenyl)-thiophene-2-carboxylic acid], the IC50 in assay [1] (between 100 nM and 5.0 uM) was 100 to 5000 nM; in assay [2] it was 183 nM.
The like results for `CC(C)(C)C#Cc1cc(N2C(=O)CN(S(=O)(=O)c3cccc(C#N)c3)C[C@H]2C2CCCCC2)c(C(=O)O)s1` [Compound 259, 3-[(R)-4-(3-Cyano-benzenesulfonyl)-2-cyclohexyl-6-oxo-piperazin-1-yl]-5-(3,3-dimethyl-but-1-ynyl)-thiophene-2-carboxylic acid] were, in that order, 100 to 5000 nM and 7 nM.
The like results for `O=C(O)c1sc(-c2ccccc2)cc1N1C(=O)CN(Cc2ccc(Cl)nc2)C[C@H]1C1CCCCC1` [Compound 267, 3-[(R)-4-(6-Chloro-pyridin-3-ylmethyl)-2-cyclohexyl-6-oxo-piperazin-1-yl]-5-phenyl-thiophene-2-carboxylic acid] were, in that order, 100 to 5000 nM and 64 nM.
Turning to `CC(C)(C)C#Cc1cc(N2C(=O)C(CCO)(CCO)OC[C@H]2C2CCCCC2)c(C(=O)O)s1` [Compound 333, 3-[(R)-5-Cyclohexyl-2,2-bis-(2-hydroxy-ethyl)-3-oxo-morpholin-4-yl]-5-(3,3-dimethyl-but-1-ynyl)-thiophene-2-carboxylic acid], the IC50 in assay [1] (between 100 nM and 5.0 uM) was 100 to 5000 nM; in assay [2] it was 10 nM.
For `O=C(O)c1sc(-c2ccccc2)cc1N1C(=O)CN(S(=O)(=O)c2ccc(NC3CCOCC3)nc2)CC1C1CCCCC1` (stereo not drawn) [Compound 90, 3-{2-Cyclohexyl-6-oxo-4-[6-(tetrahydro-pyran-4-ylamino)-pyridine-3-sulfonyl]-piperazin-1-yl}-5-phenyl-thiophene-2-carboxylic acid], the figures for the IC50 in assay [1] (setting [3]) and in assay [2] were no more than 100 nM and 4 nM, respectively.
Regarding `CC(C)(C)C#Cc1cc(N2C(=O)[C@](C)(CC#N)OC[C@H]2C2CCCCC2)c(C(=O)O)s1` [Compound 312, 3-((2S,5R)-2-Cyanomethyl-5-cyclohexyl-2-methyl-3-oxo-morpholin-4-yl)-5-(3,3-dimethyl-but-1-ynyl)-thiophene-2-carboxylic acid], the figures for the IC50 in assay [1] (setting [3]) and in assay [2] were no more than 100 nM and 2 nM, respectively.
Turning to `CN(C)[C@@H]1CCN(c2ccc(S(=O)(=O)N3CC(=O)N(c4cc(-c5ccccc5)sc4C(=O)O)[C@H](C4CCCCC4)C3)cn2)C1` [Compound 163, 3-{(R)-2-Cyclohexyl-4-[6-((R)-3-dimethylamino-pyrrolidin-1-yl)-pyridine-3-sulfonyl]-6-oxo-piperazin-1-yl}-5-phenyl-thiophene-2-carboxylic acid], the values for the IC50 in assay [1] (setting [3]) and in assay [2] were no more than 100 nM and 1 nM, respectively.
In the case of `O=C(O)c1sc(-c2ccc(F)cc2)cc1N1C(=O)CN(S(=O)(=O)c2ccc(N3CCCCCC3)nc2)C[C@H]1C1CCCCC1` [Compound 285, 3-[(R)-4-(6-Azepan-1-yl-pyridine-3-sulfonyl)-2-cyclohexyl-6-oxo-piperazin-1-yl]-5-(4-fluoro-phenyl)-thiophene-2-carboxylic acid], the values for the IC50 in assay [1] (setting [3]) and in assay [2] were no more than 100 nM and 2 nM, respectively.
Consider `NCCS(=O)(=O)N1CC(=O)N(c2cc(-c3ccccc3)sc2C(=O)O)C(C2CCCCC2)C1` (stereo not drawn) [Compound 47, 3-[4-(2-Amino-ethanesulfonyl)-2-cyclohexyl-6-oxo-piperazin-1-yl]-5-phenyl-thiophene-2-carboxylic acid], for which the IC50 in assay [1] (setting [3]) is no less than 5000 nM; in assay [1] (between 100 nM and 5.0 uM), 100 to 5000 nM; in assay [2], 88 nM.
Consider `O=C(O)c1ccc(S(=O)(=O)N2CC(=O)N(c3cc(-c4ccccc4)sc3C(=O)O)C(C3CCCCC3)C2)cc1` (stereo not drawn) [Compound 30, 3-[4-(4-Carboxy-benzenesulfonyl)-2-cyclohexyl-6-oxo-piperazin-1-yl]-5-phenyl-thiophene-2-carboxylic acid], for which the IC50 in assay [1] (setting [3]) was no less than 5000 nM; in assay [2], 3 nM.
As for `O=C(O)c1sc(-c2ccccc2)cc1N1C(=O)CN(S(=O)(=O)C2CCCC2)CC1C1CCCCC1` (stereo not drawn) [Compound 42, 3-(2-Cyclohexyl-4-cyclopentanesulfonyl-6-oxo-piperazin-1-yl)-5-phenyl-thiophene-2-carboxylic acid], the IC50 in assay [1] (between 100 nM and 5.0 uM) was 100 to 5000 nM; in assay [2], 148 nM.
In the case of `O=C(O)c1sc(-c2ccccc2)cc1N1C(=O)CN(S(=O)(=O)c2cccc(Cl)c2Cl)CC1C1CCCCC1` (stereo not drawn) [Compound 111, 3-[2-Cyclohexyl-4-(2,3-dichloro-benzenesulfonyl)-6-oxo-piperazin-1-yl]-5-phenyl-thiophene-2-carboxylic acid], the IC50 in assay [1] (setting [3]) was no less than 5000 nM; in assay [2], 243 nM.
